According to ChEMBL document CHEMBL1201862, “PubChem BioAssay data set” (2004):
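Five concentrations, 48 hours, 96-well plates. The concentration for 50% growth inhibition is given as GI50.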 Activity calls are given as the source filed them. No stated cut-off is given here; in the data, active = GI50 up to about 1.1 µM and inactive = higher.

Tests used:
Assay in all cases: inhibition of tumour cell growth, NCI panel, 48 h
A549 = test system: A549
CAKI-1 = test system: CAKI-1
MDA-MB-435 = test system: MDA-MB-435
HOP-92 = test system: HOP-92
HCT-116 = test system: HCT-116
SK-MEL-28 = test system: SK-MEL-28
T47D = test system: T47D
PC-3 = test system: PC-3
OVCAR-3 = test system: OVCAR-3
SW-620 = test system: SW-620
SNB-75 = test system: SNB-75
IGROV-1 = test system: IGROV-1
Hs-578T = test system: Hs-578T
HCC 2998 = test system: HCC 2998
NCI-H460 = test system: NCI-H460
SK-MEL-5 = test system: SK-MEL-5
ACHN = test system: ACHN
M14 = test system: M14
UACC-257 = test system: UACC-257
EKVX = test system: EKVX

Measured: GI50

C=C1C(=O)O[C@@H]2C[C@@H](C)[C@@H]3C=CC(=O)[C@@]3(C)[C@@H](OC(=O)CCCC(=O)O[C@H]3[C@@H]4C(=C)C(=O)O[C@@H]4C[C@@H](C)[C@@H]4C=CC(=O)[C@]43C)[C@H]12
inactive: A549 1.63 µM
active: CAKI-1 0.0323 µM | MDA-MB-435 0.0167 µM | HOP-92 0.034 µM | HCT-116 0.0143 µM | SK-MEL-28 0.0495 µM | T47D 0.0214 µM | PC-3 0.0931 µM | OVCAR-3 0.0398 µM | SW-620 0.0144 µM | SNB-75 0.113 µM | IGROV-1 0.112 µM | Hs-578T 0.104 µM | HCC 2998 0.624 µM | NCI-H460 0.27 µM | SK-MEL-5 0.134 µM | ACHN 0.0266 µM | M14 0.0217 µM | UACC-257 0.114 µM | EKVX 0.0875 µM

OCCCSCCO
inactive: A549 > 100 µM | CAKI-1 > 100 µM | MDA-MB-435 > 100 µM | HOP-92 > 100 µM | HCT-116 > 100 µM | SK-MEL-28 > 100 µM | T47D > 100 µM | PC-3 > 100 µM | OVCAR-3 > 100 µM | SW-620 > 100 µM | SNB-75 > 100 µM | IGROV-1 > 100 µM | Hs-578T > 100 µM | HCC 2998 > 100 µM | NCI-H460 > 100 µM | SK-MEL-5 > 100 µM | ACHN > 100 µM | M14 > 100 µM | UACC-257 > 100 µM | EKVX > 100 µM

C=C1C[C@@H]2O[C@H]3[C@H]4[C@@H](C[C@@H](C)[C@@H](OC(C)=O)[C@H]42)[C@@H](C)CO[C@@]3(C)[C@H](OC(C)=O)C[C@H]1O
inactive: A549 > 100 µM | CAKI-1 > 100 µM | MDA-MB-435 33 µM | HOP-92 66.8 µM | HCT-116 > 100 µM | SK-MEL-28 > 100 µM | T47D > 100 µM | PC-3 95.9 µM | OVCAR-3 65.2 µM | SW-620 55.6 µM | SNB-75 84.3 µM | IGROV-1 > 100 µM | Hs-578T > 100 µM | HCC 2998 > 100 µM | NCI-H460 70.8 µM | SK-MEL-5 > 100 µM | ACHN > 100 µM | M14 > 100 µM | UACC-257 > 100 µM | EKVX > 100 µM

CC(C)(C)N/N=C(\C(=O)Nc1ccc([N+](=O)[O-])cc1[N+](=O)[O-])c1nc2ccc([N+](=O)[O-])cc2nc1O
inactive: A549 > 100 µM | CAKI-1 > 100 µM | MDA-MB-435 > 100 µM | HOP-92 > 100 µM | HCT-116 68.5 µM | SK-MEL-28 > 100 µM | T47D 36.3 µM | PC-3 96.4 µM | OVCAR-3 > 100 µM | SW-620 > 100 µM | SNB-75 > 100 µM | IGROV-1 > 100 µM | Hs-578T 82.6 µM | HCC 2998 37.1 µM | NCI-H460 31.8 µM | SK-MEL-5 13.6 µM | ACHN > 100 µM | M14 > 100 µM | UACC-257 > 100 µM | EKVX > 100 µM

c1csc(-c2csc(-c3cccs3)c2)c1
inactive: A549 30.8 µM | CAKI-1 84.3 µM | MDA-MB-435 25.8 µM | HOP-92 17.7 µM | HCT-116 21.9 µM | SK-MEL-28 > 100 µM | T47D 3.2 µM | PC-3 29.7 µM | OVCAR-3 29.4 µM | SW-620 35.9 µM | SNB-75 50.5 µM | IGROV-1 78.5 µM | Hs-578T 51.3 µM | HCC 2998 48.5 µM | NCI-H460 88.3 µM | SK-MEL-5 18.7 µM | ACHN > 100 µM | M14 58.1 µM | UACC-257 40 µM | EKVX 39.8 µM

COC1=CC(=O)C2=C(C1=O)[C@H]1CC[C@]3(C)C(=O)CC[C@H]3[C@@H]1CC2
inactive: A549 45.3 µM | CAKI-1 25.8 µM | MDA-MB-435 19.8 µM | HOP-92 19.8 µM | HCT-116 18.5 µM | SK-MEL-28 78 µM | T47D 22.8 µM | PC-3 28.5 µM | OVCAR-3 23.3 µM | SW-620 26.4 µM | SNB-75 > 100 µM | IGROV-1 21.4 µM | Hs-578T 28.5 µM | HCC 2998 54.1 µM | NCI-H460 > 100 µM | SK-MEL-5 18.5 µM | ACHN 27.3 µM | M14 30.4 µM | UACC-257 22.9 µM | EKVX 16.7 µM

COC(c1ccsc1)C(C#N)(C#N)/N=C/c1ccsc1 (stereo not given)
inactive: A549 30.5 µM | CAKI-1 4.68 µM | MDA-MB-435 15.5 µM | HOP-92 12 µM | HCT-116 12.8 µM | SK-MEL-28 18.6 µM | T47D 13.9 µM | PC-3 14 µM | OVCAR-3 12.6 µM | SW-620 14.6 µM | SNB-75 15.1 µM | IGROV-1 17.1 µM | Hs-578T 22.1 µM | HCC 2998 19.8 µM | NCI-H460 18.4 µM | SK-MEL-5 13.6 µM | ACHN 18.7 µM | M14 17.8 µM | UACC-257 14.7 µM | EKVX 14.2 µM

CN(/N=C/C=N/N(C)C1=NCCN1)C1=NCCN1
inactive: A549 > 100 µM | CAKI-1 > 100 µM | MDA-MB-435 > 100 µM | HOP-92 > 100 µM | HCT-116 > 100 µM | SK-MEL-28 > 100 µM | T47D > 100 µM | PC-3 > 100 µM | OVCAR-3 > 100 µM | SW-620 > 100 µM | SNB-75 > 100 µM | IGROV-1 > 100 µM | Hs-578T > 100 µM | HCC 2998 > 100 µM | NCI-H460 > 100 µM | SK-MEL-5 > 100 µM | ACHN > 100 µM | M14 > 100 µM | UACC-257 > 100 µM | EKVX > 100 µM

COC(=O)c1ccc(/N=N/N(C)COc2ccc(C#N)cc2)cc1
inactive: A549 70 µM | CAKI-1 69 µM | MDA-MB-435 40.4 µM | HOP-92 34.4 µM | HCT-116 79.4 µM | SK-MEL-28 > 100 µM | T47D 74 µM | PC-3 > 100 µM | OVCAR-3 > 100 µM | SW-620 53.5 µM | SNB-75 49.2 µM | IGROV-1 > 100 µM | Hs-578T 59.4 µM | HCC 2998 62.1 µM | NCI-H460 18.2 µM | SK-MEL-5 45.1 µM | ACHN 21.2 µM | M14 > 100 µM | UACC-257 > 100 µM | EKVX > 100 µM

C/C=C/C(C#N)(Cc1ccccc1)OP1(=O)OC(c2ccccc2)C(C)N1C (stereo not given)
inactive: A549 66.4 µM | CAKI-1 > 100 µM | MDA-MB-435 48.4 µM | HOP-92 73.3 µM | HCT-116 > 100 µM | SK-MEL-28 > 100 µM | T47D 47.9 µM | PC-3 58.6 µM | OVCAR-3 56.8 µM | SW-620 > 100 µM | SNB-75 > 100 µM | IGROV-1 95.3 µM | Hs-578T 89.5 µM | HCC 2998 81.3 µM | NCI-H460 43.6 µM | SK-MEL-5 48.9 µM | ACHN 84.1 µM | M14 > 100 µM | UACC-257 65.8 µM | EKVX 71.6 µM

COC1=Nc2ccccc2S(=O)(=O)C=C1
inactive: A549 18.2 µM | CAKI-1 13.3 µM | MDA-MB-435 11.4 µM | HOP-92 4.81 µM | HCT-116 1.74 µM | SK-MEL-28 7.01 µM | T47D 3.66 µM | PC-3 15 µM | OVCAR-3 2.78 µM | SW-620 1.73 µM | SNB-75 2.31 µM | IGROV-1 13.7 µM | Hs-578T 18.7 µM | HCC 2998 21.4 µM | NCI-H460 19 µM | SK-MEL-5 11.4 µM | ACHN 3.07 µM | M14 7.64 µM | UACC-257 7.69 µM | EKVX 7.69 µM

N=C(N)N/N=C/c1c(-c2ccc([N+](=O)[O-])cc2)nc2n1CCS2
inactive: A549 17 µM | CAKI-1 17.5 µM | MDA-MB-435 14.8 µM | HOP-92 18.4 µM | HCT-116 7.87 µM | SK-MEL-28 17.3 µM | T47D 5.13 µM | PC-3 13.2 µM | OVCAR-3 14.8 µM | SW-620 2.53 µM | SNB-75 6.04 µM | IGROV-1 17.4 µM | Hs-578T 16.7 µM | HCC 2998 6.32 µM | NCI-H460 15.3 µM | SK-MEL-5 16.1 µM | ACHN 16.5 µM | M14 14.5 µM | UACC-257 18.5 µM | EKVX 18.3 µM

O=C(O)[C@H]1[C@@H](C2CCCCC2)O[C@@H](C2CCCCC2)O[C@H]1C(F)(F)F
inactive: A549 20.9 µM | CAKI-1 20.5 µM | MDA-MB-435 19.4 µM | HOP-92 18.8 µM | HCT-116 28.8 µM | SK-MEL-28 19.4 µM | T47D 30.5 µM | PC-3 17.6 µM | OVCAR-3 20.4 µM | SW-620 19.8 µM | SNB-75 18.7 µM | IGROV-1 16.6 µM | Hs-578T 23.1 µM | HCC 2998 20 µM | NCI-H460 19.3 µM | SK-MEL-5 20.7 µM | ACHN 18.7 µM | M14 17.9 µM | UACC-257 32.7 µM | EKVX 21.4 µM
